Assays:
hPTP1B1–400 [1] = molecular target: T1, hPTP1B1–400 (Homo sapiens, UniProt P18031); experiment: PTP1B inhibition assay (pNPP, spectrocolorimetric), long form
T1 sequence (P18031 1-400): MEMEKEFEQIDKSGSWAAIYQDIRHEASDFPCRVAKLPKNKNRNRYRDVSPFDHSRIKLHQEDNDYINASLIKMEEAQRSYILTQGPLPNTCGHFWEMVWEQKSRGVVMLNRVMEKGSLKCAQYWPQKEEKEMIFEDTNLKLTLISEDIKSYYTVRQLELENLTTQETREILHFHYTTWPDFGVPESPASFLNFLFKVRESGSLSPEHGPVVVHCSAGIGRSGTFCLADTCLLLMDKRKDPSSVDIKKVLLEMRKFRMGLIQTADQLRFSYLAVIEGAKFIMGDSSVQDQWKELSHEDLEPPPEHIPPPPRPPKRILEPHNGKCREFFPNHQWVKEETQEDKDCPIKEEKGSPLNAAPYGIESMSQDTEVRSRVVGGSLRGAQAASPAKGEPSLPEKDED

hPTP1B1–400 [2] = molecular target: T1, hPTP1B1–400; experiment: Enzyme kinetics (Lineweaver–Burk, varying pNPP); conditions: for inhibition mechanism: hPTP1B1–400, best fit of inhibition models; for Km / Vmax: hPTP1B1–400, pNPP 0.1–0.5 mM
hPTP1B1–285 = molecular target: T2, hPTP1B1–285 (Homo sapiens, UniProt P18031); experiment: PTP1B inhibition assay (pNPP, spectrocolorimetric), short form
T2 sequence (P18031 1-285): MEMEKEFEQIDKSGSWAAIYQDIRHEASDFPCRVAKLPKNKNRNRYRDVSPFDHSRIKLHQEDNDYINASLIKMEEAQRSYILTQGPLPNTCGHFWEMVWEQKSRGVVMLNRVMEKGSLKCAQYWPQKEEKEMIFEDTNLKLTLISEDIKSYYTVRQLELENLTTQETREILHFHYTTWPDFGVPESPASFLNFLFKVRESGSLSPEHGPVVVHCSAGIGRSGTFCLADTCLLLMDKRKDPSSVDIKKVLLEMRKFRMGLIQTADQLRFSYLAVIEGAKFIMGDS

hTCPTP = molecular target: T3, hTCPTP (Homo sapiens, UniProt P17706); experiment: Selectivity assay against TCPTP; format: biochemical
T3 construct: His tag (vector pET-28a(+)-TEV, with TEV site); made in house; host or cells: E. coli BL21 (DE3)
T3 sequence (P17706 1-415): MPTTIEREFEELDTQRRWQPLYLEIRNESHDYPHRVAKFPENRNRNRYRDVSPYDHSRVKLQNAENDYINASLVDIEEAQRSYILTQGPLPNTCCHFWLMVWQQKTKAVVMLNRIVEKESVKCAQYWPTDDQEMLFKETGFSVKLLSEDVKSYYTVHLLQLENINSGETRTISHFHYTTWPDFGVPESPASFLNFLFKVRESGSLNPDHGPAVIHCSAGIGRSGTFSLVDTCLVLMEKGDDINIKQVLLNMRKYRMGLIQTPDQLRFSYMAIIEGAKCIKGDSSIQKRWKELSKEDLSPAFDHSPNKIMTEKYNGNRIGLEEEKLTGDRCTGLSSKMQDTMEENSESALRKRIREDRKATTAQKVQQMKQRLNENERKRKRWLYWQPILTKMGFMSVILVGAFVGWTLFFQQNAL
Procedure: A spectrocolorimetric method previously described[3] was employed to test the inhibitory effect of the new compounds against PTP1B. […] Enzyme solutions containing pNPP and inhibitors were incubated at 37 °C for 15 min. […] The percentage of inhibition was plotted as a function of the inhibitor concentrations.
Similarly to the IC50, the assays to determine the selectivity were carried out in the same experimental conditions using hPTP1B1–400 and hTCPTP.
The expression vector pET-28a(+)-TEV was obtained from Invitrogen (Waltham, MA, USA). E. coli strain DH5α and BL21 (DE3) were purchased from Invitrogen (Waltham, MA, USA). The gene PTPN2 was subcloned into the expression vector pET-28a (+)-TEV, using the NDEI and BAMHI cloning sites. The construction pET-28A(+)-TEV–PTPN2 was transformed into E. coli strain BL21 (DE3). Transformed E. coli cells were grown in LB media containing kanamycin ([…]) at 37 °C for 6 h with continuous agitation (250 rpm). Once the cultures reached an A600 of 0.6 (about 6 h), protein expression was induced with 1 mM IPTG at 37 °C, 250 rpm for 8 h. After centrifuge (4500 rpm, 15 min, 4 °C), the grown and IPTG-induced cultures and bacterial pellet were resuspended in Tris buffer (pH 6.8) and lysed by sonication (10 cycles, intervals of 30 s) in an ice–water bath with an ultrasonic processor (Cole-Parmer, Vernon Hills, IL, USA). […] The column was equilibrated with three column volumes of 50 mM Tris, pH 6.8. His-tagged protein was eluted with Tris 50 mM and 300 mM imidazole with one column volume. […] Fractions containing hTCPTP were dialyzed in 50 mM Tris, pH 6.8. The purity of the protein was followed by SDS-polyacrylamide gel electrophoresis (SDS-PAGE) using a 12% resolving gel.

[3] = IC50 ± SD hPTP1B1–400, hPTP1B 66 nM, pNPP 0.5 mM, 37 °C, 15 min

IC50 (hPTP1B1–400 [1]; [3]) [µM] | SMILES | Ki (hPTP1B1–400 [2]) [µM] | inhibition mechanism (hPTP1B1–400 [2]) | Km (hPTP1B1–400 [2]) [µM] | Vmax (hPTP1B1–400 [2]) [mM/min] | further results
33.1 ± 2.7 | C[C@H](CCC(=O)O)C1CCC2C3CC[C@@H]4C[C@](O)(CNCc5ccccc5)CC[C@]4(C)C3CC[C@@]21C (stereo partly drawn) [compound 6a, N-Benzyl-1-((3S,5R,10S,13R)-17-((R)-4-carboxybutan-2-yl)-3-hydroxy-10,13-dimethylhexadecahydro-1H-cyclopenta[a]phenanthren-3-yl)methanaminium Chloride] |  |  |  |  | 
26.9 ± 3.5 | C[C@H](CCC(=O)O)C1CCC2C3CC[C@@H]4C[C@](O)(CNCc5ccc(O)cc5)CC[C@]4(C)C3CC[C@@]21C (stereo partly drawn) [compound 6b, 1-((3S,5R,10S,13R)-17-((R)-4-carboxybutan-2-yl)-3-hydroxy-10,13-dimethylhexadecahydro-1H-cyclopenta[a]phenanthren-3-yl)-N-(4-hydroxybenzyl)methanaminium Chloride] |  |  |  |  | 
16.3 ± 0.5 | Cc1cccc(CNC[C@]2(O)CC[C@]3(C)C4CC[C@@]5(C)C(CCC5[C@H](C)CCC(=O)O)C4CC[C@@H]3C2)c1 (stereo partly drawn) [compound 6e, 1-((3S,5R,10S,13R)-17-((R)-4-carboxybutan-2-yl)-3-hydroxy-10,13-dimethylhexadecahydro-1H-cyclopenta[a]phenanthren-3-yl)-N-(3-methylbenzyl)methanaminium Chloride] |  |  |  |  | IC50 (hPTP1B1–285): 53.8 ± 2.7 µM
34.3 ± 0.5 | Cc1ccc(CNC[C@]2(O)CC[C@]3(C)C4CC[C@@]5(C)C(CCC5[C@H](C)CCC(=O)O)C4CC[C@@H]3C2)cc1 (stereo partly drawn) [compound 6f, 1-((3S,5R,10S,13R)-17-((R)-4-carboxybutan-2-yl)-3-hydroxy-10,13-dimethylhexadecahydro-1H-cyclopenta[a]phenanthren-3-yl)-N-(4-methylbenzyl)methanaminium Chloride] |  |  |  |  | IC50 (hPTP1B1–285): 46 ± 1.7 µM
> 100 | C[C@H](CCC(=O)O)C1CCC2C3CC[C@@H]4C[C@](O)(CNCc5cccc(F)c5)CC[C@]4(C)C3CC[C@@]21C (stereo partly drawn) [compound 6g, 1-((3S,5R,10S,13R)-17-((R)-4-carboxybutan-2-yl)-3-hydroxy-10,13-dimethylhexadecahydro-1H-cyclopenta[a]phenanthren-3-yl)-N-(3-fluorobenzyl)methanaminium Chloride] |  |  |  |  | 
> 100 | C[C@H](CCC(=O)O)C1CCC2C3CC[C@@H]4C[C@](O)(CNCc5ccc(F)cc5)CC[C@]4(C)C3CC[C@@]21C (stereo partly drawn) [compound 6h, 1-((3S,5R,10S,13R)-17-((R)-4-carboxybutan-2-yl)-3-hydroxy-10,13-dimethylhexadecahydro-1H-cyclopenta[a]phenanthren-3-yl)-N-(4-fluorobenzyl)methanaminium Chloride] |  |  |  |  | 
> 100 | C[C@H](CCC(=O)O)C1CCC2C3CC[C@@H]4C[C@](O)(CNCc5cccc(Cl)c5)CC[C@]4(C)C3CC[C@@]21C (stereo partly drawn) [compound 6i, 1-((3S,5R,10S,13R)-17-((R)-4-carboxybutan-2-yl)-3-hydroxy-10,13-dimethylhexadecahydro-1H-cyclopenta[a]phenanthren-3-yl)-N-(3-chlorobenzyl)methanaminium Chloride] |  |  |  |  | 
> 100 | C[C@H](CCC(=O)O)C1CCC2C3CC[C@@H]4C[C@](O)(CNCc5ccc(Cl)cc5)CC[C@]4(C)C3CC[C@@]21C (stereo partly drawn) [compound 6j, 1-((3S,5R,10S,13R)-17-((R)-4-carboxybutan-2-yl)-3-hydroxy-10,13-dimethylhexadecahydro-1H-cyclopenta[a]phenanthren-3-yl)-N-(4-chlorobenzyl)methanaminium Chloride] |  |  |  |  | 

SMILES | IC50 (hPTP1B1–400 [1]; [3]) [µM] | Ki (hPTP1B1–400 [2]) [µM] | inhibition mechanism (hPTP1B1–400 [2]) | Km (hPTP1B1–400 [2]) [µM] | Vmax (hPTP1B1–400 [2]) [mM/min] | further results
COc1cccc(CNC[C@]2(O)CC[C@]3(C)C4CC[C@@]5(C)C(CCC5[C@H](C)CCC(=O)O)C4CC[C@@H]3C2)c1.Cl (stereo partly drawn) [compound 6c, 1-((3S,5R,10S,13R)-17-((R)-4-carboxybutan-2-yl)-3-hydroxy-10,13-dimethylhexadecahydro-1H-cyclopenta[a]phenanthren-3-yl)-N-(3-methoxybenzyl)methanaminium Chloride] | 10.5 ± 0.2 | 4 ± 0.2 | Uncompetitive | 380 ± 20 | 0.64 ± 0.02 | 
COc1ccc(CNC[C@]2(O)CC[C@]3(C)C4CC[C@@]5(C)C(CCC5[C@H](C)CCC(=O)O)C4CC[C@@H]3C2)cc1.Cl (stereo partly drawn) [compound 6d, 1-((3S,5R,10S,13R)-17-((R)-4-carboxybutan-2-yl)-3-hydroxy-10,13-dimethylhexadecahydro-1H-cyclopenta[a]phenanthren-3-yl)-N-(4-methoxybenzyl)methanaminium Chloride] | 26.6 ± 0.9 | 19.7 ± 2.6 | Uncompetitive | 780 ± 90 | 1.10 ± 0.09 | 
C[C@H](CCC(=O)O)C1CCC2C3CC[C@@H]4C[C@](O)(CNCc5cccc(C(=O)O)c5)CC[C@]4(C)C3CC[C@@]21C.Cl (stereo partly drawn) [compound 6k, N-(3-carboxybenzyl)-1-((3S,5R,10S,13R)-17-((R)-4-carboxybutan-2-yl)-3-hydroxy-10,13-dimethylhexadecahydro-1H-cyclopenta[a]phenanthren-3-Yl)methanaminium Chloride] | 32.3 ± 1.2 | 11 ± 1 | Uncompetitive | 480 ± 60 | 0.80 ± 0.06 | 
C[C@H](CCC(=O)O)C1CCC2C3CC[C@@H]4C[C@](O)(CNCc5ccc(C(=O)O)cc5)CC[C@]4(C)C3CC[C@@]21C.Cl (stereo partly drawn) [compound 6l, N-(4-carboxybenzyl)-1-((3S,5R,10S,13R)-17-((R)-4-carboxybutan-2-yl)-3-hydroxy-10,13-dimethylhexadecahydro-1H-cyclopenta[a]phenanthren-3-yl)methanaminium Chloride] | 12.6 ± 0.7 | 10.7 ± 1.6 | Uncompetitive | 950 ± 150 | 1.41 ± 0.17 | 
C[C@H](CCC(=O)O)C1CCC2C3CC[C@@H]4C[C@](O)(CNCc5cccc(C(F)(F)F)c5)CC[C@]4(C)C3CC[C@@]21C.Cl (stereo partly drawn) [compound 6m, 1-((3S,5R,10S,13R)-17-((R)-4-carboxybutan-2-yl)-3-hydroxy-10,13-dimethylhexadecahydro-1H-cyclopenta[a]phenanthren-3-yl)-N-(3-(trifluoromethyl)benzyl)methanaminium Chloride] | 7.3 ± 0.5 | 2.5 ± 0.4 | uncompetitive inhibition | 780 ± 200 | 1.05 ± 0.18 | IC50 (hTCPTP; concentrations tested 1 to 400 μM, read-out: TCPTP IC50 ± SD): > 400 µM; fold selectivity for PTP1B over TCPTP (hTCPTP; hPTP1B1–400 vs hTCPTP): around 75 fold; selectivity (PTP1B over TCPTP) (hTCPTP; hPTP1B1–400 vs hTCPTP): Yes; IC50 (hPTP1B1–400 [1]; PTP1B IC50 ± SD, selectivity assay, hPTP1B1–400): 7.3 ± 0.5 µM; fold higher potency for hPTP1B1–400 over hPTP1B1–285 (hPTP1B1–400 [1]; ratio of IC50 values, long vs short form): around 5 fold; IC50 (hPTP1B1–285): 34.9 ± 0.4 µM

Reference: PMC11292843 (ACS Omega, 2024)
